{"source": "patent EP2545915A1", "about": "“2-amino-2-oxoethyl trans-3-[5-(6-methoxy-naphtalen-1-yl)-1,3-dioxan-2-yl]propyl-carbamate for use in the treatment of persistent cancer pain” (SANOFI, priority 2011, dated 2013)", "test_system": "UDP-glucuronosyl transferase", "format": "in vitro ADME, human", "conditions": "for % Control (M3G Formation Activity) / % Control (M6G Formation Activity): morphine 2mM, HLM protein 0.5 mg/mL, 30 min", "description": "Incubations were conducted in 2-mL polypropylene centrifuge tubes. Incubation mixtures containing HLM suspension and alamethicin (25 µg/mL) in 0.1 M potassium phosphate buffer (pH 7.4), were placed on wet ice for 5 min. […] Reactions were initiated by the addition of 50 mM UDPGA spiking solution. […] Samples were incubated aerobically in a water bath at 37 °C for the required amount of time and reactions terminated by the addition of 400 µL of the appropriate quench solution. The 2-mL centrifuge tubes were vortex mixed and stored in a -20 °C freezer for ca. 20 min prior to centrifugation at 13.3 × g, 4 °C for 10 min. Supernatants were analyzed by LC-MS/MS for morphine metabolites formation.\nUGT-dependent activities were determined by monitoring the formation of enzyme specific metabolites from marker substrates. […] Incubation with selective inhibitors (positive control) was performed at a concentration above their established IC50 for the confirmation of enzyme activity and inhibitory effects.\nIncubations were performed in 2-mL centrifuge tubes. Incubation mixtures containing HLM suspension and alamethicin (25 µg/mL) in 0.1 M potassium phosphate buffer (pH 7.4), were placed on wet ice for 5 min. […] Reactions were initiated by the addition of UDPGA. The final incubation mixture contained 0.5 mg/mL HLM, 2 mM MgCl2, 5 mM UDPGA, various concentration of Compound A or a selective inhibitor. Samples were incubated aerobically in a water bath at 37 °C for 30 min. The incubation systems were terminated by the addition of a 400-µL quenching solution. The 2-mL centrifuge tubes were vortex mixed and stored in a -20 °C freezer for approximately 20 min prior to centrifugation at 13.3 × g, 4 °C for 10 min. Supernatants were analyzed by LC-MS/MS.\nPercent of Control = Cmet ÷ Ccontrol × 100%\nCmet: Concentration of the metabolite in the incubations in the presence of Compound A or selective inhibitor\nCcontrol: Concentration of the enzyme-specific metabolite in the incubations in the absence of Compound A and selective inhibitor\nThe IC50 for Compound A was estimated by non-linear regression analysis of individual sets of percent inhibition values using GraphPad Prism 5.", "key": {"[1]": {"conditions": "positive control incubation, same conditions (2 mM morphine, HLM 0.5 mg/mL, 30 min)"}}, "note": "Like-named read-outs stand apart in the source and are kept apart here.", "data": [{"smiles": "COc1ccc2c(cccc2[C@H]2CO[C@H](CCCNC(=O)OCC(N)=O)OC2)c1", "note": "[Compound A, 2-amino-2-oxoethyl trans-3-[5-(6-methoxy-naphtalen-1-yl)-1,3-dioxan-2-yl]propyl-carbamate]", "values": [{"measurement": "IC50", "setting": "2 mM morphine in HLM, Compound A 0.5 to 250 µM, M3G and M6G formation monitored", "value": "could not be estimated"}, {"measurement": "% Control (M3G Formation Activity)", "setting": "Compound A 0.5 µM", "value": 97.7, "unit": "%"}, {"measurement": "% Control (M6G Formation Activity)", "setting": "Compound A 0.5 µM", "value": 96.9, "unit": "%"}, {"measurement": "% Control (M3G Formation Activity)", "setting": "Compound A 1.0 µM", "value": 96.2, "unit": "%"}, {"measurement": "% Control (M6G Formation Activity)", "setting": "Compound A 1.0 µM", "value": 94.4, "unit": "%"}, {"measurement": "% Control (M3G Formation Activity)", "setting": "Compound A 5.0 µM", "value": 106.0, "unit": "%"}, {"measurement": "% Control (M6G Formation Activity)", "setting": "Compound A 5.0 µM", "value": 102.4, "unit": "%"}, {"measurement": "% Control (M3G Formation Activity)", "setting": "Compound A 10 µM", "value": 107.9, "unit": "%"}, {"measurement": "% Control (M6G Formation Activity)", "setting": "Compound A 10 µM", "value": 110.4, "unit": "%"}, {"measurement": "% Control (M3G Formation Activity)", "setting": "Compound A 25 µM", "value": 108.3, "unit": "%"}, {"measurement": "% Control (M6G Formation Activity)", "setting": "Compound A 25 µM", "value": 105.8, "unit": "%"}, {"measurement": "% Control (M3G Formation Activity)", "setting": "Compound A 50 µM", "value": 105.7, "unit": "%"}, {"measurement": "% Control (M6G Formation Activity)", "setting": "Compound A 50 µM", "value": 108.3, "unit": "%"}, {"measurement": "% Control (M3G Formation Activity)", "setting": "Compound A 100 µM", "value": 92.7, "unit": "%"}, {"measurement": "% Control (M6G Formation Activity)", "setting": "Compound A 100 µM", "value": 97.4, "unit": "%"}, {"measurement": "% Control (M3G Formation Activity)", "setting": "Compound A 250 µM", "value": 94.2, "unit": "%"}, {"measurement": "% Control (M6G Formation Activity)", "setting": "Compound A 250 µM", "value": 96.5, "unit": "%"}, {"measurement": "drug interaction with morphine", "setting": "according to in vitro results", "value": "no significant drug interaction"}, {"measurement": "inhibition of morphine metabolism", "setting": "human liver microsomes, formation of morphine-3-glucuronide and morphine-6-glucuronide monitored", "value": "no inhibition"}]}, {"smiles": "CC(=O)N1CCN(c2ccc(OCC3COC(Cn4ccnc4)(c4ccc(Cl)cc4Cl)O3)cc2)CC1", "note": "(stereo not drawn) [ketoconazole, reference compound]", "values": [{"measurement": "inhibition to M3G activity", "setting": "[1]", "value": "≥ 98.5", "unit": "%"}, {"measurement": "inhibition to M6G activity", "setting": "[1]", "value": "≥ 98.5", "unit": "%"}]}]}
